≈ marks a conversion by molar mass, not a printed value. Where “and” joins values, the source holds several entries; their conditions need not be identical. Equal values may be shown once. Read-outs that look alike come from different tables or passages of the source.
Assays:
[1] = tested on: M. tuberculosis H37Rv; details: for log10 CFU: individual mice; for log10 CFU / Mean log10 CFU: day 26
[2] = tested on: M. tuberculosis H37Rv; details: free drug, all three concentrations (0.25, 0.75, 2.0 μg/ml)
[3] = tested on: M. tuberculosis H37Rv; details: free rifampicin, all concentrations
[4] = tested on: Mycobacterium tuberculosis; assay: MIC for rifampicin, tuberculosis in primates
[5] = tested on: Mycobacterium tuberculosis H37Rv; assay: Minimal inhibitory concentration (Etest); assay type: cell-based, Mycobacterium tuberculosis H37Rv (ATCC 27294)
Description: Mycobacterium tuberculosis H37Rv (ATCC 27294, SRI #1345) was maintained on Middlebrook 7H1O agar slants, containing 0.5% glycerol and 10% OADC (Difco).

## CO[C@H]1/C=C/O[C@@]2(C)Oc3c(C)c(O)c4c(O)c(c(/C=N/N5CCN(C)CC5)c(O)c4c3C2=O)NC(=O)/C(C)=C\C=C\[C@H](C)[C@H](O)[C@@H](C)[C@@H](O)[C@@H](C)[C@H](OC(C)=O)[C@@H]1C [Rifampicin]
[1]; oral 0.42 mg/kg daily, 0.42 mg/kg
  log10 CFU: 5.86 log10 CFU and 5.66 log10 CFU and 5.59 log10 CFU and 5.72 log10 CFU and 5.95 log10 CFU and 5.88 log10 CFU and 5.7 log10 CFU and 6.15 log10 CFU
[1]; oral 0.42 mg/kg daily
  Mean log10 CFU: 5.62 log10 CFU
[1]; oral 1.25 mg/kg daily, 1.25 mg/kg
  log10 CFU: 5.97 log10 CFU and 5.71 log10 CFU and 5.69 log10 CFU and 5.64 log10 CFU and 5.47 log10 CFU and 5.44 log10 CFU and 5.62 log10 CFU and 5.88 log10 CFU and 5.72 log10 CFU
[1]; oral 1.25 mg/kg daily
  Mean log10 CFU: 5.68 log10 CFU
[1]; oral 5.0 mg/kg daily, 5 mg/kg
  log10 CFU: 5.45 log10 CFU and 5.31 log10 CFU and 5.10 log10 CFU and 5.43 log10 CFU and 5.06 log10 CFU and 5.18 log10 CFU and 5.20 log10 CFU and 5.51 log10 CFU and 5.32 log10 CFU
[1]; oral 5.0 mg/kg daily
  Mean log10 CFU: 5.27 log10 CFU
[1]; oral 10 mg/kg daily, 10 mg/kg
  log10 CFU: 4.27 log10 CFU and 4.72 log10 CFU and 4.15 log10 CFU and 4.00 log10 CFU and 3.48 log10 CFU and 4.54 log10 CFU and 3.30 log10 CFU and 3.00 log10 CFU and 4.48 log10 CFU
[1]; oral 10 mg/kg daily
  Mean log10 CFU: 3.99 log10 CFU
[1]; oral 5.0 and 10 mg/kg, 26 days post-infection
  reductions in viable M. tuberculosis H37Rv: significant reductions
[2]
  reduction in CFUs, J774: significant reduction in CFUs
[3]
  reduction of CFUs, MM6: significant reduction of CFUs
[4]
  MIC: 0.06 to 0.25 µg/mL (≈ 0.0729 to 0.304 µM)
[5]
  MIC: 0.06 to 0.25 µg/mL (≈ 0.0729 to 0.304 µM)
[5]; Etest, read-out: minimal inhibitory concentration (MIC)
  MIC: 0.06 to 0.25 µg/mL (≈ 0.0729 to 0.304 µM)

From US6264991A, “Compositions and methods for treating intracellular infections” (priority 1998, dated 2001)
